# Where “and” joins values, the source holds several entries; their conditions need not be identical. Equal values may be shown once. Read-outs that look alike come from different tables or passages of the source.
# Key:
# [1] = target: T1, human recombinant adrenergic α2A receptor (Homo sapiens, UniProt P08913); test: Radioligand binding, adrenergic α2A ([3H]MK-912)
# T1 construct: expressed in transfected cells; host or cells: insect Sf9 cells
# T1 sequence (P08913 1-465): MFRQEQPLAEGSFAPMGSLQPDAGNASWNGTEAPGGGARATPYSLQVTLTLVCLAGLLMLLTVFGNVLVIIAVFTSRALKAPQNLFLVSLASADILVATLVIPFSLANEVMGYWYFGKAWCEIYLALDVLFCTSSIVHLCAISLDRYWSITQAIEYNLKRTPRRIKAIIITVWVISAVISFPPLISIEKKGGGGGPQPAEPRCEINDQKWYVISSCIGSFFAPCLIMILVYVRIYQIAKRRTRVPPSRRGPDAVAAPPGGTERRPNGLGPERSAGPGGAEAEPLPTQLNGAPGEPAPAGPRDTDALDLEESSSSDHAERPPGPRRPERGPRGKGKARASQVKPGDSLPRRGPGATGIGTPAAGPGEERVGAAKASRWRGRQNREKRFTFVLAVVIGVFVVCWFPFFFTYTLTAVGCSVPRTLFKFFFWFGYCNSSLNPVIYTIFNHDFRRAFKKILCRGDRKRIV
# Outline: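 Receptor expressed in Sf9 cells, in 50 mM Tris-HCl pH 7.4, 12.5 mM MgCl2, 2 mM EDTA; compounds incubated with 1 nM [3H]MK-912 for 60 min at 25 °C.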
# [2] = target: T2, human recombinant adrenergic α2B receptor (Homo sapiens, UniProt P18089); test: Radioligand binding, adrenergic α2B ([3H]Rauwolscine); settings: for inhibition at 0.03 µM: read-out: Percentage inhibition of ligand binding, Adrenergic α2B (0.03 μM), compound at 0.03 μM
# T2 construct: expressed in transfected cells; host or cells: CHO-K1
# T2 sequence (P18089 1-450): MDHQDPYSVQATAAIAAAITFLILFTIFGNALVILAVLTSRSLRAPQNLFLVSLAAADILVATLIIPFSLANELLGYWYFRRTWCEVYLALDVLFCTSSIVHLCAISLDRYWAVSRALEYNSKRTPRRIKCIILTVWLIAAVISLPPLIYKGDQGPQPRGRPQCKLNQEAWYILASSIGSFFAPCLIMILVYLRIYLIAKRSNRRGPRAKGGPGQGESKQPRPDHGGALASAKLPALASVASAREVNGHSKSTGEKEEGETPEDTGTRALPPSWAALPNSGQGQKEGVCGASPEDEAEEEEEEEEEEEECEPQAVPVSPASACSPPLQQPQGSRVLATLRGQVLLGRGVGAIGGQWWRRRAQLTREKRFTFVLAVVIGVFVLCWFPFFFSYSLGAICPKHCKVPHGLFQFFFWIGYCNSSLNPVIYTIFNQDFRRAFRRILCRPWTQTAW
# Outline: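 Readout: percent inhibition of specific [3H]Rauwolscine binding, measured by filtration and counting. Conditions: CHO-K1 cell-expressed receptor, 2.5 nM radioligand, 60 min, 25° C, Tris-HCl pH 7.4 buffer with MgCl2, EDTA, BSA. Non-specific binding: 10 μM Prazosin.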
# [3] = target: T3, rat adrenergic α1B receptor (Rattus norvegicus, UniProt P15823); test: Radioligand binding, adrenergic α1B ([3H]Prazosin); settings: for inhibition at 0.03 µM: read-out: Percentage inhibition of ligand binding, Adrenergic α1B (0.03 μM), compound at 0.03 μM
# T3 construct: rat adrenergic α1B receptor obtained from Wistar Rat liver; from tissue; host or cells: Wistar rat liver
# T3 sequence (P15823 1-515): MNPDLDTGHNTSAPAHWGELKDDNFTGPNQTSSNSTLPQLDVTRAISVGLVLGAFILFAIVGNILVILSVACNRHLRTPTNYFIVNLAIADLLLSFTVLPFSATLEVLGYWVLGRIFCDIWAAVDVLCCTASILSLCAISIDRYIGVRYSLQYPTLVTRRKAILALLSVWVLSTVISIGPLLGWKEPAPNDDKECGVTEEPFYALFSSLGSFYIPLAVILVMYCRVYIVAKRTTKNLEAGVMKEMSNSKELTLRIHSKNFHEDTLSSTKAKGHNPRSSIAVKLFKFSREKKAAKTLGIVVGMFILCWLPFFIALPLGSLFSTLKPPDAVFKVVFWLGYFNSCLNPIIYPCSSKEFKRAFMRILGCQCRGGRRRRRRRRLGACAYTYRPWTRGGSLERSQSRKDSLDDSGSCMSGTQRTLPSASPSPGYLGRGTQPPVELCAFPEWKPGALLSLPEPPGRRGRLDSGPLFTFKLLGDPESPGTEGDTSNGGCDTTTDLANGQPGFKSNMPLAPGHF
# Outline: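 Specific binding, taken as total minus that remaining with 10 μM phentolamine, is measured after filtration and counting. Rat liver receptor preparation and 0.25 nM [3H]prazosin are incubated with compound in 50 mM Tris-HCl (pH 7.4, 0.5 mM EDTA) at 25° C for 60 min. Activity is reported as percent inhibition.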
# [4] = target: T4, human recombinant adrenergic α1D receptor (Homo sapiens, UniProt P25100); test: Radioligand binding, adrenergic α1D ([3H]Prazosin); settings: for inhibition at 0.03 µM: read-out: Percentage inhibition of ligand binding, Adrenergic α1D (0.03 μM), compound at 0.03 μM
# T4 construct: expressed in transfected cells; host or cells: HEK-293
# T4 sequence (P25100 1-572): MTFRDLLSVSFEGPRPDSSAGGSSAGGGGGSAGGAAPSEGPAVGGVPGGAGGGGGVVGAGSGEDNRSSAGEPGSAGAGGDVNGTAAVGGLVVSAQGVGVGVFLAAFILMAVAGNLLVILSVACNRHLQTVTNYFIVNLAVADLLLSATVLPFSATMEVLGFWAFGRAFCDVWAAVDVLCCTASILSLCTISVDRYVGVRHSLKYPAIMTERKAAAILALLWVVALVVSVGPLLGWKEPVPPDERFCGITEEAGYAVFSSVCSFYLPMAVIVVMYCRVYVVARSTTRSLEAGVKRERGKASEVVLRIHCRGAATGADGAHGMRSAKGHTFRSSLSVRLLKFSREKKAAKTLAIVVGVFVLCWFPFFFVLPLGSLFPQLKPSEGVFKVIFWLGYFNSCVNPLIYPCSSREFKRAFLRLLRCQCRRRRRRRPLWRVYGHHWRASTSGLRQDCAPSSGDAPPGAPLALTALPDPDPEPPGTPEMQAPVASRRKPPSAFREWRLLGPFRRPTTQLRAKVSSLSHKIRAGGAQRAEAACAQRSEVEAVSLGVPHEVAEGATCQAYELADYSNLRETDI
# Experimental: Compounds were incubated with 0.6 nM [3H]Prazosin for 60 min at 25° C. Non-specific binding was estimated in the presence of 10 μM phentolamine. Receptor proteins were filtered and washed, the filters were then counted to determine [3H]Prazosin specifically bound. […] Biochemical assay results are presented as the percent inhibition of specific binding in Table B1.
# [5] = read-out: Percentage inhibition of ligand binding, Adrenergic α2A (0.1 μM), compound at 0.1 μM, [3H]MK-912, repeat datapoints each shown
# [6] = read-out: Percentage inhibition of ligand binding, Adrenergic α2B (0.1 μM), compound at 0.1 μM, [3H]Rauwolscine, repeat datapoints each shown
# [7] = [3H]Prazosin, repeat datapoints each shown
# [8] = [3H]Rauwolscine, repeat datapoints each shown
# [9] = read-out: Percentage inhibition of ligand binding, Adrenergic α1B (0.1 μM), compound at 0.1 μM, [3H]Prazosin, repeat datapoints each shown
# [10] = read-out: Percentage inhibition of ligand binding, Adrenergic α1D (0.1 μM), compound at 0.1 μM, [3H]Prazosin, repeat datapoints each shown
Compound,"inhibition at 0.1 µM [1, 5]","inhibition at 0.1 µM [2, 6]","inhibition at 0.1 µM [3, 9]","inhibition at 0.1 µM [4, 10]",further results
Cc1ccc2c(c1)c1c(n2CCc2ccc(F)cc2)CCN(C)C1 [compound 206],86%,102%,–,–,"Ki [1]: 1.12 nM and 6.79 nM; inhibition at 0.03 µM [3, 7]: 46%; inhibition at 0.03 µM [4, 7]: 42%"
CN1CCc2c(c3cc(Cl)ccc3n2CCc2ccccc2)C1 [compound 207],90%,106%,–,–,"Ki [1]: 1.16 nM; inhibition at 0.03 µM [3, 7]: 49%; inhibition at 0.03 µM [4, 7]: 39%"
Cc1ccc(CCn2c3c(c4cc(Cl)ccc42)CN(C)CC3)cc1 [compound 208],101%,97%,–,–,"inhibition at 0.03 µM [3, 7]: 60%; inhibition at 0.03 µM [4, 7]: 41%"
CN1CCc2c(c3cc(Cl)ccc3n2CCc2ccc(Cl)cc2)C1 [compound 213],98%,–,–,–,"Percentage inhibition of ligand binding, Adrenergic α2B (0.1 μM) ([2]; compound at 0.1 μM, [3H]Rauwolscine, repeat datapoints each shown, 0.1 µM): 68% and 97%; Ki ([2]; read-out: Ki α2B): 26.3 nM; inhibition at 0.03 µM [2, 8]: 26%; inhibition at 0.03 µM [3, 7]: 53%; inhibition at 0.03 µM [4, 7]: 53%"
COc1ccc(CCn2c3c(c4cc(C)ccc42)CN(C)CC3)cc1 [compound 218],–,–,–,–,"inhibition at 0.03 µM ([1]; read-out: Percentage inhibition of ligand binding, Adrenergic α2A (0.03 μM), compound at 0.03 μM, [3H]MK-912, repeat datapoints each shown): 85%; inhibition at 0.03 µM [2, 8]: 110%; inhibition at 0.03 µM [3, 7]: 79%; inhibition at 0.03 µM [4, 7]: 60%"
CN1CCc2c(n(CC(C)(O)c3ccc(F)cc3)c3ccc(Cl)cc23)CC1 (centres unmarked) [compound 221],56%,80%,65%,16%,–
COc1ccc(/C(C)=C/n2c3c(c4cc(C)ccc42)CCN(C)CC3)c(F)c1 [compound 222],96%,104%,95%,101%,–
C/C(=C\n1c2c(c3cc(C)ccc31)CCN(C)C2)c1ccc(Cl)cc1 [compound 224],52%,69%,70%,26%,–
C/C(=C\n1c2c(c3cc(C)ccc31)C1CCC(C2)N1C)c1ccc(Cl)cc1Cl (centres unmarked) [compound 225],75%,80%,27%,12%,–
C/C(=C/n1c2c(c3cc(C)ccc31)CCN(C)CC2)c1ccc(Cl)cc1Cl [compound 226],85%,83%,88%,48%,–
C/C(=C\n1c2c(c3cc(C)ccc31)CCN(C)CC2)c1ccc(Cl)cc1Cl [compound 227],66%,98%,21%,-2%,–
C/C(=C/n1c2c(c3cc(Cl)ccc31)CCN(C)CC2)c1ccc(Cl)cc1Cl [compound 228],77%,42%,64%,19%,–
C/C(=C\n1c2c(c3cc(Cl)ccc31)CCN(C)CC2)c1ccc(Cl)cc1Cl [compound 229],53%,90%,17%,8%,–
C/C(=C/n1c2c(c3cc(C)ccc31)CCN(C)CC2)c1ccccc1F [compound 230],87%,93%,94%,58%,–
C/C(=C\n1c2c(c3cc(C)ccc31)C1CCC(C2)N1C)c1ccccc1F (centres unmarked) [compound 231],65%,87%,48%,26%,–
COc1ccc(C#Cn2c3c(c4cc(Cl)ccc42)CCN(C)CC3)cc1F [compound 242],–,–,–,–,"inhibition at 0.1 µM ([1]; 0.1 μM compound, read-out: Percentage inhibition of ligand binding, Adrenergic α2A): 50%; inhibition at 0.1 µM ([2]; 0.1 μM compound, read-out: Percentage inhibition of ligand binding, Adrenergic α2B): 98%; inhibition at 0.1 µM ([3]; 0.1 μM compound, read-out: Percentage inhibition of ligand binding, Adrenergic α1B): 53%; inhibition at 0.1 µM ([4]; 0.1 μM compound, read-out: Percentage inhibition of ligand binding, Adrenergic α1D): 37%"

# Further lines, with some results ahead:
"inhibition at 0.1 µM [1, 5]","inhibition at 0.1 µM [2, 6]","inhibition at 0.1 µM [3, 9]","inhibition at 0.1 µM [4, 10]",Compound,further results
87%,102%,87%,43%,C/C(=C\n1c2c(c3cc(C)ccc31)CCN(C)CC2)c1ccccc1F [compound 232],–
80%,103%,73%,28%,C/C(=C\n1c2c(c3cc(Cl)ccc31)CCN(C)CC2)c1ccccc1F [compound 233],–
80%,96%,48%,11%,C/C(=C\n1c2c(c3cc(Cl)ccc31)CCN(C)CC2)c1ccccc1Cl [compound 235],–
99%,98%,94%,85%,C/C(=C/n1c2c(c3cc(C)ccc31)CN(C)CC2)c1cccc(F)c1 [compound 236],–
98%,99%,80%,52%,C/C(=C\n1c2c(c3cc(C)ccc31)CN(C)CC2)c1cccc(F)c1 [compound 237],–
94%,98%,67%,25%,C/C(=C\n1c2c(c3cc(C)ccc31)CCN(C)CC2)c1ccc(Cl)c(Cl)c1 [compound 238],–
